In article PMC6199744, “Development of Chemical Proteomics for the Folateome and Analysis of the Kinetoplastid Folateome” (ACS Infectious Diseases, 2018):
Like-named read-outs stand apart in the source and are kept apart here.

Legend:
Format in all cases: binding
[1] = molecular target: T1, HeLa cell extract proteins (Homo sapiens, UniProt O00571)
T1 construct: endogenous in cells; host or cells: HeLa cell extract

[2] = molecular target: T2, HeLa cell extract proteins (Homo sapiens, UniProt P53992)
T2 construct: endogenous in cells; host or cells: HeLa cell extract
T2 sequence (P53992 1-1094): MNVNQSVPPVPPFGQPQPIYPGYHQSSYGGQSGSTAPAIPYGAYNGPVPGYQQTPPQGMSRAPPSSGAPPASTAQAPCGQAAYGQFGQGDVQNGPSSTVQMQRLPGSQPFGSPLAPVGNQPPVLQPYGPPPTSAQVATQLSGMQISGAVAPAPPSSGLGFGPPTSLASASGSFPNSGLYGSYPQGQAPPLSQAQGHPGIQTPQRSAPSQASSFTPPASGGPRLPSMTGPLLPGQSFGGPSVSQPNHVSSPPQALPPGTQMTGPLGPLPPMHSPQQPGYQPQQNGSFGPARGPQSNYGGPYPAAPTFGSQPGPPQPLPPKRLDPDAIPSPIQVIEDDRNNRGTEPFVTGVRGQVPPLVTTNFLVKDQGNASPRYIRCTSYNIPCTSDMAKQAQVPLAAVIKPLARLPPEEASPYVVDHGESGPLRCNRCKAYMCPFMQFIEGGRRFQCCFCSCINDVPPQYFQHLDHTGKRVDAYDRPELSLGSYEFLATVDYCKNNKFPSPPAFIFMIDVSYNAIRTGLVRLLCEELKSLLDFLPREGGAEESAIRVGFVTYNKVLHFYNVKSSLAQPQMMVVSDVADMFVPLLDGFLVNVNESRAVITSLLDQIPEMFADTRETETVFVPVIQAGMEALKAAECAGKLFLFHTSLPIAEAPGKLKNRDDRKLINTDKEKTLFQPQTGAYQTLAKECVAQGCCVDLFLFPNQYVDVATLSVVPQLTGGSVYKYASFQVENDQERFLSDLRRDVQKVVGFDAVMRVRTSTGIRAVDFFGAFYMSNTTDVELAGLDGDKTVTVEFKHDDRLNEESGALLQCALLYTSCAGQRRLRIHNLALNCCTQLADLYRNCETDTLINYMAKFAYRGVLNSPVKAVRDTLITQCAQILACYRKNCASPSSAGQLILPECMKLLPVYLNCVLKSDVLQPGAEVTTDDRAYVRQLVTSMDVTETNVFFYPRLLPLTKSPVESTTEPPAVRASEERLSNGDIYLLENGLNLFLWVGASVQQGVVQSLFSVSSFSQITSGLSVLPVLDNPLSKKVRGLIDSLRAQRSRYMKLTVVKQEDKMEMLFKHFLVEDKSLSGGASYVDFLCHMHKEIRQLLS

[3] = molecular target: T3, HeLa cell extract proteins (Homo sapiens, UniProt Q03519)
T3 construct: endogenous in cells; host or cells: HeLa cell extract
T3 sequence (Q03519 1-686): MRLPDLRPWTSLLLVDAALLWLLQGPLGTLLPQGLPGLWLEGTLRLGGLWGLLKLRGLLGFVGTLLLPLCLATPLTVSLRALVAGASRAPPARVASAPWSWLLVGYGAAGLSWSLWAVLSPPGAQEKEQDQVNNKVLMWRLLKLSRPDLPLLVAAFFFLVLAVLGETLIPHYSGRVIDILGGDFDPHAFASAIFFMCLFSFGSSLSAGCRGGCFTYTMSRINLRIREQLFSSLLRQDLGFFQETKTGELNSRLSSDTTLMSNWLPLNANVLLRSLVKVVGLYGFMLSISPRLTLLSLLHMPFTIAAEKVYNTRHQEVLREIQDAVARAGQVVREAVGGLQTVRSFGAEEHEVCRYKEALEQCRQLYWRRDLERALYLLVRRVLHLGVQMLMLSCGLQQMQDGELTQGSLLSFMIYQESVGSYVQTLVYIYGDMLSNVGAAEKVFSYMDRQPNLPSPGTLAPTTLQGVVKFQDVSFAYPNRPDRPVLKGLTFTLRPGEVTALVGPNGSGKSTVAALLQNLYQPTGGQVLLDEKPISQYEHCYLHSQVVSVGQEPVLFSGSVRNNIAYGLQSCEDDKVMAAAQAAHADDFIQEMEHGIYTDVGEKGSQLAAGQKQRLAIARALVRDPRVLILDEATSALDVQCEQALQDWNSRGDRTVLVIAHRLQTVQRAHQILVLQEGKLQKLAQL

[4] = molecular target: T4, HeLa cell extract proteins (Homo sapiens, UniProt Q14697)
T4 construct: endogenous in cells; host or cells: HeLa cell extract
T4 sequence (Q14697 29-944): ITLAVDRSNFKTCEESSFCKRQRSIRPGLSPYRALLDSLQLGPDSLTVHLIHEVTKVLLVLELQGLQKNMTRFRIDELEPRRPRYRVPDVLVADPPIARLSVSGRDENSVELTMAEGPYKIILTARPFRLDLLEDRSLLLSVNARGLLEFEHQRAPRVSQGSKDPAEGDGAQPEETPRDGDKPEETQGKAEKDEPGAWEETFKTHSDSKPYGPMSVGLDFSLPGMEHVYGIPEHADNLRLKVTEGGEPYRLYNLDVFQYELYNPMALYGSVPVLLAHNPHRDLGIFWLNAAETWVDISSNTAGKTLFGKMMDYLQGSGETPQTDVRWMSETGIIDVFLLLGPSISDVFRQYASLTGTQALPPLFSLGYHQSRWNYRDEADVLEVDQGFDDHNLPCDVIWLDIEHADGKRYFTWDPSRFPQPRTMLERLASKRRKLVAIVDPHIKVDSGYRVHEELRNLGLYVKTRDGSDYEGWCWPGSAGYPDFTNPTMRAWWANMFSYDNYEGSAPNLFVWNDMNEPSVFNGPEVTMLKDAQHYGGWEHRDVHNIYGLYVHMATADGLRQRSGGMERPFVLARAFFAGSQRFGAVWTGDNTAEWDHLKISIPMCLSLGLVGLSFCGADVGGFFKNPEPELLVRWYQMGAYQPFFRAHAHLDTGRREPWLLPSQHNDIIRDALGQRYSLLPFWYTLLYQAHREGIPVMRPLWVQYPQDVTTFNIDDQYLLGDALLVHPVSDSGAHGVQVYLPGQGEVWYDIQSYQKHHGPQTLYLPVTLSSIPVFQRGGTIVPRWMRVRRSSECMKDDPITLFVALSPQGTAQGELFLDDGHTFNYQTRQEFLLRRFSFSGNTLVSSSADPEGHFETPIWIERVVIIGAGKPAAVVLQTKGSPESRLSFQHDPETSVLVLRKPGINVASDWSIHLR

[5] = molecular target: T5, HeLa cell extract proteins (Homo sapiens, UniProt Q14974)
T5 construct: endogenous in cells; host or cells: HeLa cell extract
T5 sequence (Q14974 whole entry): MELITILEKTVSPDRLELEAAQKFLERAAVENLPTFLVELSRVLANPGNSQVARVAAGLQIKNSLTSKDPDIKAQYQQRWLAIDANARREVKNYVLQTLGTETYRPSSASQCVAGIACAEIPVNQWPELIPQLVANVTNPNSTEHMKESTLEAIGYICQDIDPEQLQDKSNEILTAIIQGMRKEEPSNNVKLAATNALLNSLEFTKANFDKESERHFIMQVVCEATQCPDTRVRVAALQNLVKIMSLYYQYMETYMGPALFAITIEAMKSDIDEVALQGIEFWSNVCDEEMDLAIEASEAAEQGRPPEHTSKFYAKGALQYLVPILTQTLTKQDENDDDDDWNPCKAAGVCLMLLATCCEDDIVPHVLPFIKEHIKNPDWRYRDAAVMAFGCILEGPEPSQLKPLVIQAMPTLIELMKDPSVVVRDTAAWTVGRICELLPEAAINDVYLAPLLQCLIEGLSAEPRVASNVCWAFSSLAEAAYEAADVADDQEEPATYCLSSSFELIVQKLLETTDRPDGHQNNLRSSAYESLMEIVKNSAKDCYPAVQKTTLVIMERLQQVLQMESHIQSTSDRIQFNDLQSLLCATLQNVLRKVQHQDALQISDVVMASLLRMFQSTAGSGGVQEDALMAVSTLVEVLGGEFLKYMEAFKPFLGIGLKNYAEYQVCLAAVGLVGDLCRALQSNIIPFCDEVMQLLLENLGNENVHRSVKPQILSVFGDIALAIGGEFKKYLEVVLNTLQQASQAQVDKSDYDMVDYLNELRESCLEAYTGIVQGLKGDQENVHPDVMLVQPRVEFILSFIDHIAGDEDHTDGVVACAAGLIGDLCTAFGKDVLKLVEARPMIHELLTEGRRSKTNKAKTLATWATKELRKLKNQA

[6] = molecular target: T6, HeLa cell extract proteins (Homo sapiens, UniProt Q8TCG1)
T6 construct: endogenous in cells; host or cells: HeLa cell extract

[7] = captured protein KIAA1524, HeLa

T1 sequence (O00571 whole entry): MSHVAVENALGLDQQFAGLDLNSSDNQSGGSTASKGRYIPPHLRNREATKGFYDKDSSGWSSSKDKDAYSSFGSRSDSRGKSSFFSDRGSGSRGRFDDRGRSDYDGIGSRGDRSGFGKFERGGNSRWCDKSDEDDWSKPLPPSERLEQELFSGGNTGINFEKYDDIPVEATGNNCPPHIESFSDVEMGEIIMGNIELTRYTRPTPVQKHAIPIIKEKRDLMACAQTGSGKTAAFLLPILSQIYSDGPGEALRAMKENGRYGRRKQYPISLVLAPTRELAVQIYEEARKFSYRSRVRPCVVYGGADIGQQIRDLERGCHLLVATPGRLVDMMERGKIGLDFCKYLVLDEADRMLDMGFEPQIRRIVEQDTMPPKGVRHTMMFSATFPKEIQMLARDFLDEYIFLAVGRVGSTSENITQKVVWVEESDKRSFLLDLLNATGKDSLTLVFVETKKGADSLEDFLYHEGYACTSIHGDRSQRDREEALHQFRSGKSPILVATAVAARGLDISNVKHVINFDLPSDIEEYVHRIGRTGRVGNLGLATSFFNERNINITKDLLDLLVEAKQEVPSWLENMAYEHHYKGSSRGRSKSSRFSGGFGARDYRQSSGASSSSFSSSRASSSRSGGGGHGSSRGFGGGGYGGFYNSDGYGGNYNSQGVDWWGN

| SMILES | fold changes relative to vehicle control ([1]; HeLa, captured protein DDX3X) | fold changes relative to vehicle control ([2]; HeLa, protein SEC24C) | fold changes relative to vehicle control ([3]; HeLa, captured protein TAP2) | fold changes relative to vehicle control ([4]; HeLa, protein GANAB) | fold changes relative to vehicle control ([5]; HeLa, protein KPNB1) | fold changes relative to vehicle control ([6]; HeLa, protein KIAA1524) | fold changes relative to vehicle control ([1]; protein DDX3X, HeLa) | fold changes relative to vehicle control ([2]; protein SEC24C, HeLa) | fold changes relative to vehicle control ([3]; captured protein TAP2, HeLa) | fold changes relative to vehicle control ([4]; protein GANAB, HeLa) | fold changes relative to vehicle control ([5]; protein KPNB1, HeLa) | fold changes relative to vehicle control [6, 7] | further results |
| --- | --- | --- | --- | --- | --- | --- | --- | --- | --- | --- | --- | --- | --- |
| Nc1nc2c(c(=O)[nH]1)N(C=O)C(CNc1ccc(C(=O)N[C@@H](CCC(=O)O)C(=O)O)cc1)CN2 (stereo partly drawn) [LEU, leucovorin] | 0.94 | 0.98 | 1.11 | 0.99 | 0.99 | 0.87 |  |  |  |  |  |  |  |
| Nc1nc2[nH]cc(CCc3ccc(C(=O)N[C@@H](CCC(=O)O)C(=O)O)cc3)c2c(=O)[nH]1 [PTX, pemetrexed] |  |  |  |  |  |  |  |  |  |  |  |  | fold changes relative to vehicle control [1]: 0.86; fold changes relative to vehicle control [2]: 0.96; fold changes relative to vehicle control [3]: 0.89; fold changes relative to vehicle control [4]: 1; fold changes relative to vehicle control [5]: 1.06; fold changes relative to vehicle control [6]: 0.87 |
| CCCCCCOc1ccc(Cc2cnc(N)nc2N)cc1 [compound 1] |  |  |  |  |  |  | 0.96 | 1.03 | 1.01 | 1.08 | 1.09 | 0.97 |  |
| CCCCCCOc1cccc(Cc2cnc(N)nc2N)c1 [compound 2] |  |  |  |  |  |  | 1.05 | 1.01 | 0.98 | 1.28 | 1.6 | 1.09 |  |
| Nc1nc2cccc(-c3ccccc3)c2n1Cc1ccc(Cl)c(Cl)c1 [compound 3] |  |  |  |  |  |  | 0.94 | 1.28 | 1.06 | 0.94 | 0.97 | 0.98 |  |
| NCCOCCOCC(=O)Nc1nc2ncc(CNc3ccc(C(=O)NC(CCC(=O)O)C(=O)O)cc3)nc2c(=O)[nH]1 (stereo not drawn) [compound 6] | 0.9 | 0.92 | 1.18 | 1.1 | 1.13 | 0.94 |  |  |  |  |  |  |  |
| NCCCNc1ccc(C(=O)NC(CCC(=O)O)C(=O)O)cc1 (stereo not drawn) [compound 7] | 0.93 | 1.14 | 1.09 | 0.97 | 0.89 | 0.89 |  |  |  |  |  |  |  |
